The results in this text go back to patent US11292803B2, “Bioreducible N-oxide-based probes for imaging of hypoxia” (THE BOARD OF TRUSTEES OF THE UNIVERSITY OF ILLINOIS, priority 2018, dated 2022).

Data set [1] has as its system CYP450-rich rat liver microsomes. On the procedure: FIG. 4. […] (a) Representative PA image (770 nm) of reaction mixtures incubated under normoxic or hypoxic conditions for 2 h, then quenched with an equal volume of acetonitrile. Dashed lines indicate positioning of FEP tubes. (b) Change in PA signal (770 nm) produced after 2 h incubation of HyP-1 (10 μM) with rat liver microsomes (RLM) (200 μg/mL) and NADPH (50 μM) in normoxic and hypoxic conditions (n=3). (c) Ratiometric fluorescence turn-on after 2 h incubation of HyP-1 (2 μM) with RLM ([…]) and NADPH (50 μM) in normoxic or hypoxic conditions (n=3). (d) Normalized fluorescent turn-on after 1 h hypoxic incubation of HyP-1 (2 μM) with RLM (100 μg/mL) and NADPH (50 μM) under various conditions. Statistical significance represents a comparison to the hypoxic control (n=6). Results with error bars are represented as mean±SD. **p<0.01, ***p<0.001, ****p<0.0001.
The responsiveness of HyP-1 to hypoxia was first evaluated in vitro via fluorescence by incubating HyP-1 with CYP450-rich rat liver microsomes under atmospheric (normoxic) and oxygen-deprived (hypoxic) conditions. […] The PA response of HyP-1 under identical conditions was evaluated by quenching the reaction mixtures with an equal volume of acetonitrile and transferring the solutions into fluorinated ethylene propylene (FEP) tubes, which were inserted into the centre of a 2 cm thick agarose-based tissue-mimicking phantom.
For hypoxic assays only, cuvettes were sealed with septa, then evacuated and filled with N2 (×3) prior to use. Potassium phosphate buffer (0.1 M, pH 7.4) and NADPH (0.5 mM) were degassed with N2 for 30 minutes. For all assays, phosphate buffer (889 μL) rat liver microsomes (200 μg/mL) and HyP-1 (1 μL, 2 mM in DMSO) were added to the cuvette and pre-incubated at 37° C. for 5 minutes. NADPH (100 μL) was added and incubation continued with fluorescence spectra acquisition occurring at the indicated time points. Spectra were acquired according to the following parameters: λex=672, emission range=685-800 nm and λex=750, emission range=760-900 nm. For BIPY and DPI experiments, the compounds were added from stock solutions (1 M BIPY in DMSO and 50 mM DPI in deionized water) following the 5 minute preincubation, and the buffer volume was adjusted such that the total volume in the cuvette was equal to 1 mL. Deactivated microsomes were prepared by heating in a 45° C. water bath for 30 minutes.

A further data set has as its system 4T1 cells. The data set is described as follows: Ratiometric fluorescence of cells, IVIS Spectrum. Type of data set: cell-based, murine. To be noted: hypoxic 4T1 cells. Here is the method:
Ratiometric fluorescence imaging was also performed on 4T1 cells cultured in 6-well plates using an IVIS Spectrum imaging system. Cells were stained with a 5 μM solution of HyP-1 and incubated in either normoxic or hypoxic conditions for 4 hours (FIG. 5c). […] To further verify the in vitro results and determine the cellular factors responsible for HyP-1 reduction, cells were also stained with HyP-1 solutions containing either BIPY or DPI at multiple concentrations and incubated under hypoxic conditions.
Authenticated 4T1 cells were purchased from ATCC. Cells were grown in RPMI 1640 medium supplemented with 10% fetal bovine serum. Cells were cultured at 37° C. in 5% CO2 and 20% 02 for normoxic conditions. Hypoxic cell culture was performed by incubating cells in a sealed container with a Mitsubishi AnaeroPack™ anaerobic gas generator. Hypoxic conditions were verified with the use of a Mitsubishi RT Anaero-Indicator.
For cellular imaging using the IVIS Spectrum imaging system, cells were plated in a 6-well plate at an initial density of 1.7×10^4 cells/mL and allowed to grow until 60-80% confluent (approximately 3 days). Media was removed and cells were washed with PBS. A […] solution of HyP-1 in serum-free medium was added, and cells were incubated under normoxic or hypoxic conditions for 4 hours. For BIPY and DPI experiments, the staining solution was supplemented with the compound at the appropriate concentration, and ratiometric turn-on was reported relative to a vehicle control. Images were obtained using excitation and emission filter sets of 675/720 nm and 745/800 nm. Regions of interest (ROIs) were drawn around cell-containing wells, and ratiometric signal was calculated by determining the ratio of radiant efficiency corresponding to 800 nm and 720 nm emissions.

The subject of the next data set is ischemic hindlimb tissue. The data set is described as follows: In vivo fluorescence imaging of hindlimb ischemia model. Details: species or system BALB/c mice. The following applies: 5 mM co-administered, ischemic hindlimb. Here is the method:
To visualize the response of HyP-1 in a model of rapidly developing hypoxia, a murine hindlimb ischemia model of peripheral artery disease was employed. Ischemia was induced in the right hindlimb of BALB/c mice via ligation of the femoral artery. […] After a 1-hour recovery period, HyP-1 (50 μL, 50 μM) was administered via intramuscular injection into both hindlimbs of the mouse. To visualize the time-dependent response of HyP-1 in the ischemic and non-ischemic tissue, ratiometric fluorescence imaging was performed over the course of 1 hour immediately following injection. […]
All in vivo imaging experiments were performed with the approval of the Institutional Animal Care and Use Committee of the University of Illinois at Urbana-Champaign, following the principles outlined by the American Physiological Society on research animal use. […] Animals that underwent unsuccessful surgery as determined by laser Doppler perfusion imaging were excluded from analysis.
Images were obtained using epi-fluorescence with excitation filters of 675 and 745 and corresponding emission filters of 720 and 800, respectively. […] ROIs of equal area were drawn around signals, and the total radiant efficiency in each ROI was determined. Ratiometric signal was calculated by determining the ratio of radiant efficiency corresponding to 800 nm and 720 nm emissions.

Data set [2] in a line: Photophysical characterization (absorbance, emission, extinction coefficient, quantum yield). Type of data set: physicochemical.

As to `c1ccc(-c2ccccn2)nc1` [BIPY, 2,2′-bipyridine, reference compound], in data set [1], the “effect on HyP-1 turn-on response / reduction by rat liver microsomes” value is given as “no significant inhibition”. For the same molecule, the “effect on cellular response to HyP-1” value with 4T1 cells (1 mM) is recorded as “no effect”. The “effect on ratiometric fluorescence of HyP-1 in cells” value with 4T1 cells (5 mM) is given as “only slight reduction”. In the data set with ischemic hindlimb tissue, the “ratiometric fluorescence enhancement with co-administration versus HyP-1 alone” value was “statistically indistinguishable”.
In the case of `[Cl-].c1ccc([I+]c2ccccc2)cc1` [DPI, diphenyliodonium chloride, reference compound], in data set [1], the “effect on HyP-1 turn-on response / reduction by rat liver microsomes” value is on record as “inhibition of HyP-1 reduction was achieved”. In addition, in the data set with 4T1 cells (multiple concentrations (100, 500 μM)), the “inhibition of HyP-1 ratiometric fluorescence in cells” value was “significant dose-dependent inhibition”.
For the molecule `CC[N+]([O-])(CC)c1ccc(-c2cc(-c3ccccc3)c3n2[B-](F)(F)[N+]2=C(c4ccccc4)C=C(c4ccccc4)C2=N3)cc1` [HyP-650, 4-(5,5-difluoro-1,7,9-triphenyl-5H-54,64-dipyrrolo[1,2-c:2′,1′-f][1,3,5,2]triazaborinin-3-yl)-N,N-diethylaniline oxide], in data set [2] (in CHCl3 (Table 3)), the “Φ (fluorescence quantum yield)” value came to 0.027, the ε is recorded as 4.0 × 10^4 M^−1 · cm^1 and the λabs amounted to 650 nm.
On to `CCN(CC)c1ccc(C2=[N+]3C(=Nc4c(-c5ccccc5)cc(-c5ccc([N+]([O-])(CC)CC)cc5)n4[B-]3(F)F)C(c3ccccc3)=C2)cc1` [rHyP-1, 4-(7-(4-(diethylamino)phenyl)-5,5-difluoro-1,9-diphenyl-5H-5λ^4,6λ^4-dipyrrolo[1,2-c:2′,1′-f][1,3,5,2]triazaborinin-3-yl)-N,N-diethylaniline oxide], for which, in data set [2] (Table 2), the Φ is on record as 0.013, the ε is on record as 5.8 × 10^4 M^−1 · cm^1 and the λabs was determined as 749 nm.
Taken in the same sequence, the figures for `CN(C)c1ccc(C2=[N+]3C(=Nc4c(-c5ccccc5)cc(-c5ccc([N+](C)(C)[O-])cc5)n4[B-]3(F)F)C(c3ccccc3)=C2)cc1` [rHyP-2] were 0.021, 4.6 × 10^4 M^−1 · cm^1 and 738 nm.
In the case of `CCCN(CCC)c1ccc(C2=[N+]3C(=Nc4c(-c5ccccc5)cc(-c5ccc([N+]([O-])(CCC)CCC)cc5)n4[B-]3(F)F)C(c3ccccc3)=C2)cc1` [rHyP-3], in data set [2] (Table 2), the Φ came to 0.013, the ε is given as 8.0 × 10^4 M^−1 · cm^1 and the λabs came out at 747 nm.
For the molecule `[O-][N+]1(c2ccc(-c3cc(-c4ccccc4)c4n3[B-](F)(F)[N+]3=C(c5ccc(N6CCCCC6)cc5)C=C(c5ccccc5)C3=N4)cc2)CCCCC1` [rHyP-4], in data set [2] (Table 2), the Φ is given as 0.011, the ε was 9.1 × 10^4 M^−1 · cm^1 and the λabs worked out at 748 nm.
For `[O-][N+]1(c2ccc(-c3cc(-c4ccccc4)c4n3[B-](F)(F)[N+]3=C(c5ccc(N6CCOCC6)cc5)C=C(c5ccccc5)C3=N4)cc2)CCOCC1` [rHyP-5], in data set [2] (Table 2), the Φ was 0.049, the ε is 9.2 × 10^4 M^−1 · cm^1 and the λabs worked out at 718 nm.
As for `CCN(CC)c1ccc(-c2cc(-c3ccccc3)c3n2[B-](F)(F)[N+]2=C(c4ccccc4)C=C(c4ccccc4)C2=N3)cc1` [red-HyP-650, 4-(5,5-difluoro-1,7,9-triphenyl-5H-54,64-dipyrrolo[1,2-c:2′,1′-f][1,3,5,2]triazaborinin-3-yl)-N,N-diethylaniline], in data set [2] (in CHCl3 (Table 3)), the “Φ (fluorescence quantum yield)” value turned out to be 0.069, the ε was 8.1 × 10^4 M^−1 · cm^1 and the λabs came out at 740 nm.
Take `CCN(CC)c1ccc(C2=[N+]3C(=Nc4c(-c5ccccc5)cc(-c5ccc(N(CC)CC)cc5)n4[B-]3(F)F)C(c3ccccc3)=C2)cc1` [red-rHyP-1, 4,4′-(5,5-difluoro-1,9-diphenyl-5H-4λ^4,5λ^4-dipyrrolo[1,2-c:2′,1′-f][1,3,5,2]triazaborinine-3,7-diyl)bis(N,N-diethylaniline)]: in data set [2] (Table 2), the Φ is recorded as 0.013, the ε is 9.9 × 10^4 M^−1 · cm^1 and the λabs came out at 818 nm.
Taken in the same sequence, the figures for `CN(C)c1ccc(C2=[N+]3C(=Nc4c(-c5ccccc5)cc(-c5ccc(N(C)C)cc5)n4[B-]3(F)F)C(c3ccccc3)=C2)cc1` [red-rHyP-2] were 0.023, 8.2 × 10^4 M^−1 · cm^1 and 798 nm.
Turning to `CCCN(CCC)c1ccc(C2=[N+]3C(=Nc4c(-c5ccccc5)cc(-c5ccc(N(CCC)CCC)cc5)n4[B-]3(F)F)C(c3ccccc3)=C2)cc1` [red-rHyP-3], in data set [2] (Table 2), the Φ is on record as 0.010, the ε was 9.3 × 10^4 M^−1 · cm^1 and the λabs is recorded as 826 nm.
In the same order, the values of `F[B-]1(F)n2c(-c3ccc(N4CCCCC4)cc3)cc(-c3ccccc3)c2N=C2C(c3ccccc3)=CC(c3ccc(N4CCCCC4)cc3)=[N+]21` [red-rHyP-4] are 0.017, 7.6 × 10^4 M^−1 · cm^1 and 787 nm.
Consider `F[B-]1(F)n2c(-c3ccc(N4CCOCC4)cc3)cc(-c3ccccc3)c2N=C2C(c3ccccc3)=CC(c3ccc(N4CCOCC4)cc3)=[N+]21` [red-rHyP-5], for which, in data set [2] (Table 2), the Φ is 0.085, the ε was 7.6 × 10^4 M^−1 · cm^1 and the λabs is reported as 758 nm.
